The conditions of test [1]: concentration of 0.01%; vegetable oils subjected to heating; cited from earlier work.
A short description of test [2]: FtCl (Ft Cleaning) 300 cleaning and whitening ability test on Martindale tester, Example 1. The following applies: Δ by 4 cycles values. The procedure:
To determine resistance of dental enamel to attrition on a Martindale tester (hereinafter—Tester) the sets were analyzed—samples of solutions of piezoelectric materials and tooth brushes based on the following indicator: • FtCl (Ft Cleaning) 300, characterizes the cleaning ability of a solution (paste) by making 300 cleaning movements (mah) in a suspension of piezoelectric materials. The indicator is used as an analog of PCR (Pellicle Cleaning Ration) and it enables quantitative assessment of the cleaning and whitening action of a solution (paste) in case of a single-time cleaning. […]
Determination of FtCl300 for a solution of piezoelectric materials: • path: ∞L=25 mm, • rate 150 mah/min, • impact—300 mah, • brush load 325 g, • minimum quantity of parallel determinations—one per each paste with a test brush, • a test tooth brush: tooth brush PROFESSIONAL COMPLETE of medium hardness, • use one brush head for not more than 3-4 cycles, i.e. for 900-1200 mah, owing to wear out of bristles; then replace the brush head with a new one. […]
FtCl300 values were calculated by the formula: FtCl300=100*(Lcl−Lcol)/(Lin−Lcol) Preparation of Solutions: • 1. […]
Test results. […] In this model any color is determined with lightness (L-Lightness) and two chromatic components: channel a—colors from dark green through gray to purple, channel b—colors from blue through gray to yellow. […]

Test [3] can be described thus: Antioxidant activity in relation to ascorbic acid by the ferricyanide spectrophotometric method. The following applies: 2% solution in distilled water. An excerpt:
Materials and methods. The test item was 2% seignette salt solution in distilled water.

Regarding `O=C([O-])C(O)C(O)C(=O)[O-].[Na+].[Na+]` (stereo not shown) [sodium tartrate], the antioxidant effect entry in test [1] is listed as “marked antioxidant effect”.
For the compound `O.O.O.O.O=C([O-])C(O)C(O)C(=O)[O-].[K+].[Na+]` (stereo not shown) [seignette salt, potassium sodium tartrate KNaC4H4O6·4H2O], in test [2], the “difference in FtCl300 to barium titanate” value is recorded as 0.19. Also, in test [3], the “Antioxidant activity (AOA)” value stood at 0.00013 mol-eq/l and the “Antioxidant activity, AOA in relation to vitamin C (higher than vitamin C)” value stood at 13.7%.

(Values after patent US12616646B2, “Use of rochelle salt” (SKYLAB AG, priority 2021, dated 2026).)
